We go through six compounds from patent US7727999B2, “Spiroazacyclic compounds as monoamine receptor modulators” (ACADIA Pharmaceuticals Inc., priority 2001, dated 2010).

In one data set the target is T1, m3 (Homo sapiens, UniProt P20309).
T1 construct: expressed in transfected cells; host or cells: NIH3T3 cells, pSI vector
In words: R-SAT selectivity profiling, m3. In kind it is cell-based. As to conditions: m3, antagonist assay; read-out: pEC50 or pIC50 (converted). The procedure:
(§1) The functional receptor assay, Receptor Selection and Amplification Technology (R-SAT), was used (with minor modifications from that previously described U.S. Pat. No. 5,707,798) to screen compounds for efficacy at the 5-HT2A receptor. Briefly, NIH3T3 cells were grown in 96 well tissue culture plates to 70-80% confluence. Cells were transfected for 12-16 hours with plasmid DNAs using superfect (Qiagen Inc.) as per manufacture's protocols. R-SAT's were generally performed with 50 ng/well of receptor and 20 ng/well of Beta-galactosidase plasmid DNA-All receptor and G-protein constructs used were in the pSI mammalian expression vector (Promega Inc) as described in U.S. Pat. No. 5,707,798. The 5HT2A receptor gene was amplified by nested PCR from brain cDNA using the oligodeoxynucleotides based on the published sequence (see Saltzman et. al. Biochem. Biophys. Res. Comm. 181:1469-78 (1991)). Large-scale transfections, cells were transfected for 12-16 hours, then trypsinized and frozen in DMSO. […] Media was then removed from the plates and marker gene activity was measured by the addition of the beta-galactosidase substrate ONPG (in PBS with 5% NP-40). The resulting calorimetric reaction was measured in a spectrophotometric plate reader (Titertek Inc.) at […]. All data were analyzed using the computer program XLFit (IDBSm). […]

Data set [1] concerns spontaneous locomotor activity. Briefly: Spontaneous locomotor activity in mice. In kind it is in vivo. As to conditions: at doses that attenuate MK-801 hyperactivity; compound administered alone. The procedure:
Male Non-Swiss Albino mice (Harlan Sprague-Dawley) were housed (4 mice/cage) in rooms with temperature and humidity controlled and water and food (Harlan Teklad) freely available. Mice were kept on a 12-hr light:dark cycle. For locomotor experiments, plastic 20×20×30 cm activity cages were equipped with photocell beams (AccuScan Instruments). For hyperactivity experiments, mice were treated with 0.3 mg/kg dizocilpine i.p. 15 min before the session. Mice were treated with 69NLS75 s.c. 10 min before the session or p.o. 30 min before the session and placed into the activity cages. For spontaneous activity, 69NLS75 was administered alone. Locomotor data were collected during a 15 min session without habituation in a lit room. Each dose combination was tested in a separate group of animals (n=8). Distance traveled (cm) was calculated and averaged followed by ANOVA and post-hoc Dunnett's t-test comparisons.

For the next data set, the target named is T2, H1 (Homo sapiens, UniProt P35367).
T2 construct: expressed in transfected cells; host or cells: NIH3T3 cells, pSI vector
T2 sequence (P35367 whole entry): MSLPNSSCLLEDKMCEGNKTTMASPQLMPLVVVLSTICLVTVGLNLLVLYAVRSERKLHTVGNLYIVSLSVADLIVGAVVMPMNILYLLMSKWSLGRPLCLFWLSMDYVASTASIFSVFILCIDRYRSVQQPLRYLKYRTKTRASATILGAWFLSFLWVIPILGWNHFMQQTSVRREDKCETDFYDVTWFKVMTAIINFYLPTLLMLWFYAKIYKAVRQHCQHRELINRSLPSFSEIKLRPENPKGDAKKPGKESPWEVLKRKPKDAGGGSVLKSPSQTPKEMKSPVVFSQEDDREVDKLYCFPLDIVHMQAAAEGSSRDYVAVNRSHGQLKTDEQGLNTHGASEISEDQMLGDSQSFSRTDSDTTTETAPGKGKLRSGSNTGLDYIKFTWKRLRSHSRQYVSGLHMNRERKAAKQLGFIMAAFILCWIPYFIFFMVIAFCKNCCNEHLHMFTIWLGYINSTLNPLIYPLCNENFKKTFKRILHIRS
Briefly: R-SAT selectivity profiling, H1. In kind it is cell-based. Particulars: H1, antagonist assay; read-out: pEC50 or pIC50 (converted). The procedure: as §1

Another data set addresses T3, 5-HT2A receptor (Homo sapiens, UniProt P28223).
T3 construct: expressed in transfected cells; host or cells: NIH3T3 cells, pSI mammalian expression vector
In words: R-SAT functional receptor assay at the 5-HT2A receptor. In kind it is cell-based. As to conditions: for IC50: R-SAT, NIH3T3 cells, inverse agonism (repression of basal response), read-out: 5HT2A pIC50 (converted). The source says:
The EC50 for an agonist is intended to denote the concentration of a compound needed to achieve 50% of a maximal response seen in R-SAT. For inverse agonists, EC50 is intended to denote the concentration of a compound needed to achieve 50% inhibition of an R-SAT response from basal, no compound, levels.
The functional receptor assay, Receptor Selection and Amplification Technology (R-SAT), was used (with minor modifications from that previously described U.S. Pat. No. 5,707,798) to screen compounds for efficacy at the 5-HT2A receptor. Briefly, NIH3T3 cells were grown in 96 well tissue culture plates to 70-80% confluence. Cells were transfected for 12-16 hours with plasmid DNAs using superfect (Qiagen Inc.) as per manufacture's protocols. R-SAT's were generally performed with 50 ng/well of receptor and 20 ng/well of Beta-galactosidase plasmid DNA-All receptor and G-protein constructs used were in the pSI mammalian expression vector (Promega Inc) as described in U.S. Pat. No. 5,707,798. The 5HT2A receptor gene was amplified by nested PCR from brain cDNA using the oligodeoxynucleotides based on the published sequence (see Saltzman et. al. Biochem. Biophys. Res. Comm. 181:1469-78 (1991)). Large-scale transfections, cells were transfected for 12-16 hours, then trypsinized and frozen in DMSO. Frozen cells were later thawed, plated at 10,000-40,000 cells per well of a 96 well plate that contained drug. With both methods, cells were then grown in a humidified atmosphere with 5% ambient CO2 for five days. Media was then removed from the plates and marker gene activity was measured by the addition of the beta-galactosidase substrate ONPG (in PBS with 5% NP-40). The resulting […] reaction was measured in a spectrophotometric plate reader (Titertek Inc.) at […]. All data were analyzed using the computer program XLFit (IDBSm). Efficacy is the percent maximal repression compared to repression by a control compound (ritanserin in the case of 5HT2A). pIC50 is the negative of the log(IC50), where IC50 is the calculated concentration in Molar that produces 50% maximal repression.
The R-SAT assay (described above in example) was used to investigate the selectivity of 4-(4-Fluoro-benzyl)-3-(4-isobutoxy-benzyl)-8-methyl-1-oxa-3,8-diaza-spiro[4.5]decan-2-one.

In another data set the target is T4, 5HT 2C (Homo sapiens, UniProt P28335).
T4 construct: expressed in transfected cells; host or cells: NIH3T3 cells, pSI vector
T4 sequence (P28335 33-458): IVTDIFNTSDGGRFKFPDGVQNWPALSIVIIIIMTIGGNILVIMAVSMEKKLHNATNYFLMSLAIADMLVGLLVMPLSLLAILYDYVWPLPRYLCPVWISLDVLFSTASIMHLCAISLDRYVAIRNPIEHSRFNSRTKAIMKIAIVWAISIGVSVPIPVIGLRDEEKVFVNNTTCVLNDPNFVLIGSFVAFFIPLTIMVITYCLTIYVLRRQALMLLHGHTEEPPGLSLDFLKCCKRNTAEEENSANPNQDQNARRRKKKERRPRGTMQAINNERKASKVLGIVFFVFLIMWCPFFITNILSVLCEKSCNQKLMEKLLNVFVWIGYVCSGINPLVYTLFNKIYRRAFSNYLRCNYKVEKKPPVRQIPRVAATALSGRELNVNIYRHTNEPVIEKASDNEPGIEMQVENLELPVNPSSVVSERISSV
In words: R-SAT selectivity profiling, 5HT 2C. In kind it is cell-based. The procedure: as §1

The target of the next data set is T5, 5HT1A (Homo sapiens, UniProt P08908).
T5 construct: expressed in transfected cells; host or cells: NIH3T3 cells, pSI vector
T5 sequence (P08908 1-422): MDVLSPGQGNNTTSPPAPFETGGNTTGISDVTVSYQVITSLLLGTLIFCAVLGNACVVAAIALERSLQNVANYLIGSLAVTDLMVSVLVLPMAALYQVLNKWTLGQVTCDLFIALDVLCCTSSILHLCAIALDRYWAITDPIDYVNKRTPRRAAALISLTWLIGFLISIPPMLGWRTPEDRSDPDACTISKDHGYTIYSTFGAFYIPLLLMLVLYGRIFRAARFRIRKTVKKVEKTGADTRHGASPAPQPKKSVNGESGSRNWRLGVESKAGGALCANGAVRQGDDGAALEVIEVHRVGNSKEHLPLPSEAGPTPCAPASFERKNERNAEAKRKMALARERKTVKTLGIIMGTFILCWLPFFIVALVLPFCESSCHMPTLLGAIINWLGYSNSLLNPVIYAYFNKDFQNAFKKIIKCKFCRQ
Briefly: R-SAT selectivity profiling, 5HT1A. In kind it is cell-based. Particulars: antagonist assay, read-out: pEC50 or pIC50 (converted). The protocol:
as §1

Data set [2] has as its system MK-801-induced hyperactivity in mice. In words: Attenuation of MK-801 (dizocilpine)-induced hyperactivity in mice. Particulars: for MED (mg/kg) p.o.: mice treated with MK801, oral administration; for dose giving statistically significant decrease of MK-801-induced hyperactivity compared to vehicle control: 0.3 mg/kg dizocilpine i.p. In kind it is in vivo. The procedure:
Male Non-Swiss Albino mice (Harlan Sprague-Dawley) were housed (4 mice/cage) in rooms with temperature and humidity controlled and water and food (Harlan Teklad) freely available. Mice were kept on a 12-hr light:dark cycle. For locomotor experiments, plastic 20×20×30 cm activity cages were equipped with photocell beams (AccuScan Instruments).
For hyperactivity experiments, mice were treated with 0.3 mg/kg dizocilpine i.p. 15 min before the session. Mice were treated with 69NLS75 s.c. 10 min before the session or p.o. 30 min before the session and placed into the activity cages. For spontaneous activity, 69NLS75 was administered alone. Locomotor data were collected during a 15 min session without habituation in a lit room. Each dose combination was tested in a separate group of animals (n=8). Distance traveled (cm) was calculated and averaged followed by ANOVA and post-hoc Dunnett's t-test comparisons.
The effect of various compounds on locomotor activity in mice treated with MK801 was observed as described above.
Animals received 0.1-30 mg/kg of the compound indicated via subcutaneous injection or oral administration. MED indicates the minimum effective dose at which a statistically significant reduction of locomotor activity (described above) was observed. MED=minimum effective dose in vivo.

The target of the next data set is T6, alpha 2A (Homo sapiens, UniProt P08913).
T6 construct: expressed in transfected cells; host or cells: NIH3T3 cells, pSI vector
T6 sequence (P08913 1-465): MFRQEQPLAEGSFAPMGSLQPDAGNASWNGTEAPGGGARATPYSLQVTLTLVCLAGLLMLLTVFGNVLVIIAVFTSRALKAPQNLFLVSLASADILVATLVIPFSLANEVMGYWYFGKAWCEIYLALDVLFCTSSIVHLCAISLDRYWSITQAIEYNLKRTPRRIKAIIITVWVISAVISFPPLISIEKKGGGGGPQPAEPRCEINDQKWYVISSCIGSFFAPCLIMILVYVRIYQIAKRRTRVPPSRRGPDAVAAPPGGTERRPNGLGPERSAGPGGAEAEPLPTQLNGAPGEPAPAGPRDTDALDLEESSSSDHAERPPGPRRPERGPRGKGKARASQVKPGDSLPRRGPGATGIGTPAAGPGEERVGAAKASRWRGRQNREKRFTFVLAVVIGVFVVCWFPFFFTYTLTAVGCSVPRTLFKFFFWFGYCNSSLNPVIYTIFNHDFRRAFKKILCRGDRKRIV
In words: R-SAT selectivity profiling, alpha 2A. As to conditions: antagonist assay, read-out: pEC50 or pIC50 (converted). In kind it is cell-based. The protocol:
as §1

The mark [3] stands for this setting: minimum effective dose for statistically significant reduction of locomotor activity.
[4] abbreviates: efficacy: percent maximal repression compared to ritanserin.

SMILES strings stand for the structures. Structures can show the parent of a compound that is named as a salt.

T3 sequence (P28223 whole entry): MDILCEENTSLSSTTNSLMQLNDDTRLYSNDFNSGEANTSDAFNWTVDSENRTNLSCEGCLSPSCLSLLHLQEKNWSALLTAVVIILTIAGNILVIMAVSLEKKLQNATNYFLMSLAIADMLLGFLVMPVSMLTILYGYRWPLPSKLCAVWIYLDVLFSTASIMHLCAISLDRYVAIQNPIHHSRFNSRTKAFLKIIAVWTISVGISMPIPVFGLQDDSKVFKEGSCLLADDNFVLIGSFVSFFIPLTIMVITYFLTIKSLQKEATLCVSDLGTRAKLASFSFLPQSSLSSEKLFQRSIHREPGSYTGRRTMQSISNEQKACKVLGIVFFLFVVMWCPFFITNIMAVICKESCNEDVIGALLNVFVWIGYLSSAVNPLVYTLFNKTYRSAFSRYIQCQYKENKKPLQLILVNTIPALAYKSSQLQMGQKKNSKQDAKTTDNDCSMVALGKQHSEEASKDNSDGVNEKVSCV
T1 sequence (P20309 whole entry): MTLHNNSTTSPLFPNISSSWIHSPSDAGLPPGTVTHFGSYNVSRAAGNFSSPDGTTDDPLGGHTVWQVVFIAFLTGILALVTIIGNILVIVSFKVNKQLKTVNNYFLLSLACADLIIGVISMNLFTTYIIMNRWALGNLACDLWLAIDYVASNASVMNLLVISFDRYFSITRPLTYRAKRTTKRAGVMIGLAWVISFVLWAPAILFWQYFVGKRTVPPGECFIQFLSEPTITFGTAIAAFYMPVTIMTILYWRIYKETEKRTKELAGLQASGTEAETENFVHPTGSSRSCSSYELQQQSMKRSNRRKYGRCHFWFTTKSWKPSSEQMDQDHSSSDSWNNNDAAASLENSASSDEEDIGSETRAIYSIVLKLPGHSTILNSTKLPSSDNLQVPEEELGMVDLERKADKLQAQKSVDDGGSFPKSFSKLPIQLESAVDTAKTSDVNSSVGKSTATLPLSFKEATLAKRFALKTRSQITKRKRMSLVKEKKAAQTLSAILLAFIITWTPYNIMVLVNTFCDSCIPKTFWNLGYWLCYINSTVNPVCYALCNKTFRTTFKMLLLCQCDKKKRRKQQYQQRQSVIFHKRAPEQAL

Take `CC(C)COc1ccc(CN2C(=O)OC3(CCN(C)CC3)C2Cc2ccc(F)cc2)cc1.Cl` (racemic) [Compound 69NLS75, 4-(4-Fluorobenzyl)-3-(4-isobutoxybenzyl)-8-methyl-1-oxa-3,8-diaza-spiro[4.5]decan-2-one, hydrochloride]: the IC50 was 398 nM on m3; 200 nM at H1; 0.316 nM at 5-HT2A receptor; 31.6 nM on 5HT 2C (5HT 2C, inverse agonist assay, read-out: pEC50 or pIC50 (converted)); 398 nM on 5HT1A; 501 nM at alpha 2A. In addition, in data set [1], the “effect on spontaneous locomotor activity” value is on record as “no effect”. The “efficacy in brackets (%)” value on 5-HT2A receptor (5HT2A, inverse agonist assay) is recorded as 94%; at 5HT 2C, 77%. In addition, the “pEC50 or pIC50” value on 5-HT2A receptor (5HT2A, inverse agonist assay) came out at 9.5. Moreover, the Emax on 5-HT2A receptor (efficacy: percent maximal repression compared to ritanserin, read-out: 5HT2A % inhibition) worked out at 94%. The “effect on MK-801-induced hyperactivity in mice” value in data set [2] (distance traveled, 15 min session) is listed as “dose-related decrease”. Besides, the “MED (mg/kg) p.o.” value in data set [2] (setting [3]) worked out at 3 mg/kg. The “MED (mg/kg) s.c.” value in data set [2] (minimum effective dose for statistically significant reduction of locomotor activity, mice treated with MK801, subcutaneous injection) is listed as 3 mg/kg. For the same compound, the “dose giving statistically significant decrease of MK-801-induced hyperactivity compared to vehicle control” value in data set [2] (p.o. 30 min before session) and in data set [2] (s.c. 10 min before session) was 3 mg/kg each time.

With `CC(C)COc1ccc(CN2C(=O)OC3(CCN(C)CC3)[C@@H]2Cc2ccc(F)cc2)cc1` (single isomer, unassigned) [Compound 78NLS59, hydrochloride], the “enantiomer preference at the 5-HT2A receptor in vitro” value at 5-HT2A receptor ((S)- versus (R)-enantiomer, Table 1) is given as “eutomer”. At 5-HT2A receptor, the IC50 was 0.251 nM. Also, at 5-HT2A receptor (setting [4]), the 5HT2A % inhibition was 98%.

Consider `CC(C)COc1ccc(CN2C(=O)OC3(CCN(C)CC3)[C@H]2Cc2ccc(F)cc2)cc1.Cl` (single isomer, unassigned) [Compound 78NLS62, hydrochloride], for which the IC50 on 5-HT2A receptor is 6.31 nM.

The compound `CC(C)COc1ccc(CN2C(=O)OC3(CCN(C)CC3)[C@H]2Cc2ccc(F)cc2)cc1.Cl` (single isomer, unassigned) [Compound 78NLS62] registered a 5HT2A % inhibition at 5-HT2A receptor (setting [4]) of 89%.

Take `CN1CCC2(CC1)OC(=O)N(Cc1ccc(OCC3CC3)cc1)C2Cc1ccc(F)cc1.Cl` (centres unmarked) [Compound 69NLS52, 3-(4-Cyclopropylmethoxybenzyl)-4-(4-fluorobenzyl)-8-methyl-1-oxa-3,8-diaza-spiro[4.5]decan-2-one, hydrochloride]: the “MED (mg/kg) p.o.” value in data set [2] (setting [3]) is 10 mg/kg.

Consider `CC(C)COc1ccc(CN2C(=O)OC3(CCN(CCC4OCCO4)CC3)C2Cc2ccc(F)cc2)cc1.Cl` (centres unmarked) [Compound 69NLS79-II, 8-(2-[1,3]Dioxolan-2-yl-ethyl)-4-(4-fluorobenzyl)-3-(4-isobutoxybenzyl)-1-oxa-3,8-diaza-spiro[4.5]decan-2-one, hydrochloride], for which the “MED (mg/kg) p.o.” value in data set [2] (setting [3]) amounted to 3 mg/kg.
